According to patent publication US4550186A, “Binuclear copper (II) carboxylates formed from amine-carboxyboranes” (Duke University, priority 1983, dated 1985):

Assays:
[1] = system: Ehrlich ascites carcinoma; assay: Ehrlich ascites carcinoma growth in CF1 male mice; format: in vivo, mouse
Protocol: CF1 male mice (~30 g) were implanted with 2×10^6 Ehrlich ascites tumor cells, intraperitoneally on Day 0. Compound I was suspended by homogenation in 0.05% polysorbate.80-water and administered intraperitoneally at 10 and 20 mg/kg for 9 days to determine its effectiveness for inhibition of tumor growth. Mice were sacrificed on Day 10, and the ascites fluid was collected from the peritoneal cavity. The volume and ascrit (packed cell volume) were determined for each animal and the percent inhibition of tumor growth was calculated. For the metabolic studies, mice were treated on Days 8 and 9 with 10 mg/kg of Compound I, intraperitoneally. The animal was sacrificed on Day 10 and the ascites fluid harvested. The in vitro metabolic studies were performed at […] final concentration of Compound I.

[2] = doses of 150-200 mg/kg; cited from earlier work

## Sc1ncnc2nc[nH]c12 [6-mercaptopurine, reference compound]
[1]; Standard, dose not given
  Ascrit Packed Cell Vol.: 2.5
  Percent Inhibition: 99.9%
  Vol(ml) Ascites Fluid: 0.10 mL
[1]; mouse, in vivo
  No. of Animals Survived on Day 10: 6

## CCOC(=O)C(C)(C)Oc1ccc(Cl)cc1 [clofibrate]
[2]
  lowers serum cholesterol: 6-15%
  lowers serum triglyceride levels: 25%
